Reference: the NIST ThermoML archive (doi:10.1016/j.jct.2011.12.001)
Several values for one entry are separate records, joined by “and”; a condition that tells them apart may be missing. Identical values can stand only once. ± gives the expanded uncertainty stated by the source.

Key:
[1] = molar enthalpy of vaporization or sublimation; details: 298.15 K; Liquid; drop calorimetry
[2] = molar enthalpy of transition or fusion; details: drop calorimetry
[3] = Crystal, Calculated from knudsen effusion weight loss

| SMILES | molar enthalpy [1] [kcal/mol] | molar enthalpy of transition or fusion ([2]; 324.2 K, Liquid) [kcal/mol] | vapor or sublimation pressure ([3]; 271.17 K) | vapor or sublimation pressure ([3]; 273.17 K) | vapor or sublimation pressure ([3]; 275.13 K) | vapor or sublimation pressure ([3]; 277.16 K) | vapor or sublimation pressure ([3]; 279.06 K) | vapor or sublimation pressure ([3]; 281.16 K) | vapor or sublimation pressure ([3]; 283.17 K) | vapor or sublimation pressure ([3]; 285.14 K) | vapor or sublimation pressure ([3]; 287.14 K) | molar enthalpy of transition or fusion ([2]; 349.4 K, Crystal) [kcal/mol] |
| --- | --- | --- | --- | --- | --- | --- | --- | --- | --- | --- | --- | --- |
| COc1ccccc1I [1-iodo-2-methoxybenzene] | 15.6 ± 0.669 | 16.52 ± 0.0956 | – | – | – | – | – | – | – | – | – | – |
| COc1ccc(I)cc1 [1-iodo-4-methoxybenzene] | 19.7 ± 0.717 | – | 0.000123 ± 2e-05 kPa and 0.00012 ± 2e-05 kPa and 0.000116 ± 2e-05 kPa | 0.000161 ± 2.1e-05 kPa and 0.000156 ± 2.1e-05 kPa and 0.000153 ± 2.1e-05 kPa | 0.000213 ± 2.1e-05 kPa and 0.000211 ± 2.1e-05 kPa and 0.000196 ± 2.1e-05 kPa | 0.000267 ± 2.2e-05 kPa and 0.000258 ± 2.2e-05 kPa and 0.000279 ± 2.2e-05 kPa | 0.00035 ± 2e-05 kPa and 0.000334 ± 2.3e-05 kPa and 0.000332 ± 2.3e-05 kPa | 0.000463 ± 2.6e-05 kPa and 0.000446 ± 2.6e-05 kPa and 0.000429 ± 2.5e-05 kPa | 0.000606 ± 2.9e-05 kPa and 0.000571 ± 2.8e-05 kPa and 0.000555 ± 2.8e-05 kPa | 0.000749 ± 3.3e-05 kPa and 0.000718 ± 3.2e-05 kPa | 0.000979 ± 4e-05 kPa and 0.000924 ± 3.8e-05 kPa and 0.000923 ± 3.8e-05 kPa | 21.61 ± 0.143 |
| COc1cccc(I)c1 [3-iodoanisole] | 14.9 ± 0.621 | 15.85 ± 0.0478 | – | – | – | – | – | – | – | – | – | – |
